Reference: patent US20130324555A1, “Method of use of pharmaceutical formulations for the treatment of apicomplexan diseases in animals” (priority 2012, published 2013)
pIC50: −log10 of the molar value. “Also recorded” adds a separate entry of the source. Where two headings read alike, the source gives them in different places.

Columns and labels:
T. gondii tachyzoites = assay: In vitro inhibition of T. gondii tachyzoites (RH-YFP fluorescence / [3H]-uracil incorporation); type: cell-based; conditions: for IC90 / pIC50: Toxoplasma gondii; for activity against T. gondii tachyzoites, in words: only MIC50≦1 μM considered active
Procedure: Determination of the anti-apicomplexan activity of Compounds of Formula I may be determined by one skilled in the art. Parasite proliferation was monitored by using stably transfected type I RH-YFP parasites, which constitutively express Yellow Florescent Protein. Proliferation also was tested using a [^3H]-Uracil incorporation assay, as Uracil is incorporated into nucleic acids of T. gondii tachyzoites, but not mammalian cells, as they divide. Complimentary challenge assays ensured that the observed fluorescence data was due to parasite inhibition and not to quenched fluorescence. Pyrimethamine and sulfadiazine were used as positive controls, and DMSO at a concentration of 0.1% was used as the negative control. Because T. gondii is an obligate parasite, compounds that are toxic to host cells will appear to inhibit parasite growth. Therefore, all test compounds were simultaneously evaluated for efficacy and toxicity against human cells.
Test compounds were dissolved in DMSO to make a 10 mM solution, and subsequently diluted with IMDM-C to the concentrations used in bioassay. In the in vitro experiments DMSO concentration was not greater than 0.1% unless otherwise specified. RH-YFP parasites, which stably express Yellow Florescent Protein, were used. Tachyzoites were extracted from HFF cells by double passage through a 25-gauge needle, centrifuged for 15 minutes at 1500 RPM, and resuspended in IMDM-C. Confluent monolayers of HFF cells were infected with parasites in 96-well plates (Falcon 96 Optilux Flat-bottom) with 3,500 parasites in 100 uL per well. One hour after inoculation, test compounds and control media were added for a final volume of 200 uL per well. Parasite proliferation was assessed using [^3H]-Uracil incorporation or YFP Fluorescence assay.
Human Foreskin Fibroblast (HFF) cells were maintained in confluent monolayers in Iscoves's Modified Dulbecco's Medium supplemented with 10% fetal bovine serum, 1% GlutaMAX and 1% penicillin-streptomycin-fungizone (IMDM-C). T. gondii tachyzoites were cultivated in HFF monolayers. Parasites and cells were maintained at 33° C. or 37° C. and 5% CO2. The strains of parasite used in this study include RH, RH-YFP, and Prugnaud FLUC (Type 2 parasites stably transfected with luciferase), Me49 strain, and TgGoatUS4 isolate.
25 μL of 0.1 mCi/mL*^3H]-Uracil or [^3H]-Thymidine was added to each well 24 hours before reading plates. At harvesting, contents of the wells were transferred onto a 96-well UniFilter GF/C filter plates using a Filtermate 196 cell harvester (Packard). [^3H]-Uracil and [^3H]-Thymidine incorporation was measured using a Microplate Scintillation Luminescence Counter (Packard).
72 hours after initiation of the in vitro challenge assay, parasite proliferation was assessed by reading fluorescence of YFP parasites with a Synergy H4 Hybrid Reader (BioTek) and Gen5 1.10 software, using a bottom optics positions, excitation wavelength of 514 nm, and emission wavelength of 540 nm.

P. falciparum TM90-C235 = assay: Malaria SYBR Green 1-Based Fluorescence (MSF) Assay, strain TM90-C235; type: cell-based; conditions: for efficacy against TM90-C235 compared with D6 (cross-resistance): D6 versus TM90-C235; for C235 IC50: multi-drug resistant strain TM90-C235
Procedure: Compound activity against P. falciparum, the causative agent of malaria, was assessed using the Malaria SYBR Green 1-Based Fluorescence (MSF) Assay. This microtiter plate drug sensitivity assay uses the presence of malarial DNA as a measure of parasitic proliferation. The assay is a microtiter plate drug sensitivity assay that uses the presence of malarial DNA as a measure of parasitic proliferation in the presence of antimalarial drugs or experimental compounds based on modifications of previously described methods (Plouffe et al., Proc Natl Acad Sci USA. 2008, 105, 9059-9064), (Johnson et al., Antimicrob. Agents Chemother. 2005, 49, 3463-3467).
Selected compounds were examined for activity against two strains of P. falciparum: D6 (CDC/Sierra Leone), a drug-sensitive and readily killed by chloroquine, and TM90-C235, a multi-drug resistant strain resistant to chloroquine.
D6 (CDC/Sierra Leone) and TM90-C235 (WRAIR, Thailand) laboratory strains of P. falciparum were used for each drug sensitivity assessment. The parasite strains were maintained continuously in long-term cultures as previously described in Johnson et al, and P. falciparum strains in late-ring or early-trophozoite stages were cultured in predosed 384-well microtiter drug assay plates in 38 μl culture volume per well at a starting parasitemia of 0.3% and a hematocrit of 2%. Pre-dosed, sterile, 384 well black optical bottom microtiter drug plates for use in the MSF assay were produced using a Tecan EVO Freedom Liquid Handling System (Tecan US, Durham, N.C.). Dose response plates were produced at a final concentration ranging from 0.5-10000 ng/ml in quadruplicate (twelve two-fold serial dilutions of each test compound or chloroquine control in DMSO. Each run was validated by a batch control plate with chloroquine (Sigma-Aldrich Co., Catalog #C6628) at a final concentration of 2000 ng/ml. The cultures were incubated for 72 hours at 37° C., 5% CO2, 5% O2 and 90% N2. Lysis buffer (38 μl per well), consisting of 20 mM Tris HCl, 5 mM EDTA, 1.6% Triton X, 0.016% saponin, and SYBR green I dye at a 20× concentration (Invitrogen, Catalog #S-7567) was then added to the assay plates utilizing the Tecan EVO Freedom system for a final SYBR Green concentration of 10×. Plates were incubated in the dark at room temperature in the dark for 24 hours.
Compound activity was assessed by examining for the relative fluorescence units (RFU) per well using the Tecan Genios Plus (Tecan US, Inc., Durham, N.C.). GraphPad Prism (GraphPad Software Inc., San Diego, Calif.) using the nonlinear regression (sigmoidal dose-response/variable slope) equation was used to determine IC50 values.

RH-YFP tachyzoites = assay: Determination of static or cidal effects; type: cell-based, T. gondii; conditions: compound at 1 μM; for static or cidal effect: growth assessed at days 11, 17, 25
Procedure: In order to determine whether leading compounds in this study inhibited parasite proliferation by either a cidal or static mechanism, four were selected (3i, 3j, 7a, and 14a) and applied at four to eight times MICs50 to parasites. In this assay, RH-YFP tachyzoites were treated with each compound at 1 μM under various dosing conditions:
Condition A: Parasites were treated for four days, then compound was removed
Condition B: Parasites were treated for ten days, then compound was removed
Condition C: Compound was refreshed at four days then removed at ten days
Condition D: Compound was maintained for the duration of the experiment
The four and ten day time points were taken to reveal the impact of extended exposure of the parasites to the test substance. Compounds were refreshed at four days to examine whether compound degradation could contribute to an observed static effect. Parasite growth was assessed at days 11, 17, and 25. The growth data, as a function of ^3H-uracil uptake, is expressed in FIG. 7. 4 days, Condition A; 10 days, renewed at 4, Condition B; 10 days, Condition C; All time, Condition D. Ordinate: Counts per minute.
RH-YFP tachyzoites were treated with each compound at 1 μM under one of four conditions: a) parasites were treated for four days, then compound was removed; b) parasites were treated for ten days, then compound was removed; c) compound was refreshed at four days and removed at ten; or d) compound was maintained for the duration of the experiment. The four and ten day time points were taken to reveal the impact of extended exposure of the parasites to the test substance. Compounds were refreshed at four days to examine whether compound degradation could contribute to an observed static effect. Parasite growth was assessed at 11, 17, and 25 days.

[1] = serial dilutions, additional test concentrations, RH-YFP, read-out: IC90
[2] = Plasmodium falciparum, TM90, multi-drug resistant strain TM90-C235, read-out: C235 IC50
[3] = serial dilutions, additional test concentrations, RH-YFP, read-out: IC50
[4] = Plasmodium falciparum, TM90, read-out: C235 IC50

CC(C)(C)c1cccc(NC(=O)c2cc(Cl)ccc2O)c1 [Compound 3i, N-(3-tert-butylphenyl)-5-chloro-2-hydroxybenzamide]
IC90 (T. gondii tachyzoites; [1]): 16 to 31 nM
activity against T. gondii tachyzoites, in words (T. gondii tachyzoites): active at low nanomolar concentrations
efficacy against TM90-C235 compared with D6 (cross-resistance) (P. falciparum TM90-C235): two-fold higher IC50
IC50 (P. falciparum TM90-C235; [2]): > 2 µg/mL
C235 IC50 (P. falciparum TM90-C235): >2 µg/mL
static or cidal effect (RH-YFP tachyzoites): parasitostatic; also recorded: static effect

O=C(Nc1cc(C(F)(F)F)cc(C(F)(F)F)c1)c1cc(Cl)ccc1O [Compound 3j]
pIC50 (T. gondii tachyzoites; [3]): 7.51 to 7.80
IC90 (T. gondii tachyzoites; [1]): 125 to 250 nM
activity against T. gondii tachyzoites, in words (T. gondii tachyzoites): active at low nanomolar concentrations; also recorded: promising activity
efficacy against TM90-C235 compared with D6 (cross-resistance) (P. falciparum TM90-C235): equally effective
IC50 (P. falciparum TM90-C235; [4]): 0.541 µg/mL
duration of treatment after which a cidal effect was shown (RH-YFP tachyzoites): four days
static or cidal effect (RH-YFP tachyzoites): parasitocidal; also recorded: cidal

O=C(Oc1ccc(Cl)cc1C(=O)Nc1ccc([N+](=O)[O-])cc1Cl)c1ccccc1 [Compound 7a, 4-chloro-2-((2-chloro-4-nitrophenyl)carbamoyl)phenyl benzoate]
pIC50 (T. gondii tachyzoites; [3]): 6.90 to 7.21
IC90 (T. gondii tachyzoites; [1]): 125 to 250 nM
activity against T. gondii tachyzoites, in words (T. gondii tachyzoites): active at low nanomolar concentrations; also recorded: apparent increase in potency over 4
efficacy against TM90-C235 compared with D6 (cross-resistance) (P. falciparum TM90-C235): equally effective
pIC50 (P. falciparum TM90-C235; Plasmodium falciparum, TM90, chloroquine resistant strain TM90-C235, read-out: TM90-C235 IC50): 6.22
IC50 (P. falciparum TM90-C235; [2]): 0.267 µg/mL
C235 IC50 (P. falciparum TM90-C235): 0.2666 µg/mL
duration of treatment after which a cidal effect was shown (RH-YFP tachyzoites): four days
static or cidal effect (RH-YFP tachyzoites): parasitocidal; also recorded: cidal

CN(CC(=O)NN)C(=O)Oc1ccc(Cl)cc1C(=O)Nc1ccc([N+](=O)[O-])cc1Cl.Cl [Compound 14a, 4-chloro-2-((2-chloro-4-nitrophenyl)carbamoyl)phenyl (2-hydrazinyl-2-oxoethyl)(methyl)carbamate hydrochloride]
pIC50 (T. gondii tachyzoites): 7.51 to 7.80
IC90 (T. gondii tachyzoites): 125 to 250 nM
activity against T. gondii tachyzoites, in words (T. gondii tachyzoites): active at low nanomolar concentrations
efficacy against TM90-C235 compared with D6 (cross-resistance) (P. falciparum TM90-C235): equally effective
IC50 (P. falciparum TM90-C235; [4]): 1.32 µg/mL
duration of treatment after which a cidal effect was shown (RH-YFP tachyzoites): ten days
static or cidal effect (RH-YFP tachyzoites): cidal

CN(CC(=O)NN)C(=O)Oc1ccc(Cl)cc1C(=O)Nc1ccc(C(F)(F)F)cc1C(F)(F)F.Cl [Compound 14b, 2-((2,4-bis(trifluoromethyl)phenyl)carbamoyl)-4-chlorophenyl (2-hydrazinyl-2-oxoethyl)(methyl)carbamate hydrochloride]
pIC50 (T. gondii tachyzoites): 6.60 to 6.90
IC90 (T. gondii tachyzoites): 125 to 250 nM
activity against T. gondii tachyzoites, in words (T. gondii tachyzoites): active at low nanomolar concentrations
